Measured values as given in ChEMBL document CHEMBL3596108 (Bioorg Med Chem, 2015).

Experiments:
[1] = Passive permeability of the compound by PAMPA method; assay type: physicochemical; conditions: read-out: permeability
[2] = Cmax in nude mouse at 30 mg/kg, ip administered as single dose; assay type: ADME, organism-based; set-up: dose 30 mg/kg, route intraperitoneal; conditions: in vivo
[3] = AUC (0 to t) in nude mouse at 30 mg/kg, ip administered as single dose; assay type: ADME, organism-based; conditions: in vivo
[4] = Tmax in nude mouse at 30 mg/kg, ip administered as single dose; assay type: ADME, organism-based; conditions: in vivo
[5] = Half life in nude mouse at 30 mg/kg, ip administered as single dose; assay type: ADME, organism-based; conditions: in vivo

Papp [1]: 3.03 ×10⁻⁶ cm/s
Cmax [2]: 115 ng/mL
AUC(0-t) [3]: 190 ng·h/mL
Tmax [4]: 30 min
half-life [5]: 35 min
Structure (SMILES): Cl.NC1CCc2c(Br)ccc(-c3ccccc3)c2CC1=O (stereo not given)
